Measured values as given in ChEMBL document CHEMBL2401710, “Design, synthesis and structure-activity relationships of zwitterionic spirocyclic compounds as potent CCR1 antagonists” (Bioorg Med Chem Lett, 2013).

assay: Antiplatelet activity in human platelet-rich plasma assessed as ADP-induced platelet aggregation at 10 uM relative to control; format: functional; conditions: not given

Compound	Activity
CC(C)(C)c1ccccc1Oc1ncccc1Nc1nc(C(F)(F)F)c(C#N)s1	101%
COc1cccc(-c2sc(Nc3cccnc3Oc3ccccc3C(C)(C)C)nc2C(F)(F)F)c1	41%
CC(C)(C)c1ccccc1Oc1ncccc1Nc1nc(C(C)(C)C)c(-c2ccccc2)s1	86%
COc1ccc(-c2sc(Nc3cccnc3Oc3ccccc3C(C)(C)C)nc2C(F)(F)F)cc1	30%
Cc1ccc(-c2sc(Nc3cccnc3Oc3ccccc3C(C)(C)C)nc2C(F)(F)F)cc1	32%
CN(C)C(=O)c1nc(Nc2cccnc2Oc2ccccc2C(C)(C)C)sc1-c1ccccc1	100%
CC(C)(C)c1ccccc1Oc1ncccc1Nc1nc(C(F)(F)F)c(-c2ccc(OC(F)(F)F)cc2)s1	85%
CC(C)(C)c1ccccc1Oc1ncccc1Nc1nc(C(F)(F)F)c(-c2cccc(O)c2)s1	98%
CCc1nc(Nc2cccnc2Oc2ccccc2C(C)(C)C)sc1-c1ccccc1	78%
CC(C)(C)c1ccccc1Oc1ncccc1Nc1nc(C(F)(F)F)c(-c2ccccc2O)s1	99%
CC(C)(C)c1ccccc1Oc1ncccc1Nc1nc(C(F)(F)F)c(-c2ccccc2F)s1	41%
CC(C)(C)c1ccccc1Oc1ncccc1Nc1nc(C(C)(C)CC(=O)O)c(-c2ccccc2)s1	89%
Cc1ccccc1-c1sc(Nc2cccnc2Oc2ccccc2C(C)(C)C)nc1C(F)(F)F	54%
CCOC(=O)c1sc(Nc2cccnc2Oc2ccccc2C(C)(C)C)nc1C(F)(F)F	50%
CC(C)(C)c1ccccc1Oc1ncccc1Nc1ncc(-c2ccccc2)s1	87%
CC(C)(C)c1ccccc1Oc1ncccc1Nc1nc(C(F)(F)F)c(-c2ccc(C#N)cc2)s1	79%
CN(C)CC(C)(C)COc1cccc(-c2sc(Nc3cccnc3Oc3ccccc3C(C)(C)C)nc2C(F)(F)F)c1	17%
Cc1sc(Nc2cccnc2Oc2ccccc2C(C)(C)C)nc1C(F)(F)F	96%
Cc1noc(-c2sc(Nc3cccnc3Oc3ccccc3C(C)(C)C)nc2C(F)(F)F)n1	56%
CC(C)(C)c1ccccc1Oc1ncccc1Nc1nc(C(F)(F)F)c(-c2ccccc2)s1	61%

assay: Half life in rat at 5 mg/kg, iv; format: ADME, organism-based; parameters: dose 5 mg/kg, route intravenous; conditions: in vivo

half-life	Compound
2.1 h	CN(C)CC(C)(C)COc1cccc(-c2sc(Nc3cccnc3Oc3ccccc3C(C)(C)C)nc2C(F)(F)F)c1

assay: Antiplatelet activity in human platelet-rich plasma assessed as inhibition of ADP-induced platelet aggregation; format: functional, cell-free; conditions: not given

IC50	Compound
5.2 µM	CC(C)(C)c1ccccc1Oc1ncccc1Nc1nc(C(F)(F)F)c(-c2ccccc2)s1
